In the supplement of paper PMC10307832:

Tests used:
Assay in all cases: relative viability (nuclei count vs DMSO), 5 days (fraction); higher = more cells survive
Axitinib + Crizotinib = compound: CNC(=O)c1ccccc1Sc1ccc2c(/C=C/c3ccccn3)n[nH]c2c1 [Axitinib] + C[C@@H](Oc1cc(-c2cnn(C3CCNCC3)c2)cnc1N)c1c(Cl)ccc(F)c1Cl [Crizotinib] (partner 1 µM)
Outline: (§1)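 Cells from lung cancer lines were seeded into 1536-well plates and, one day later, dosed by pin tool. Treatments were either a single drug or a fixed dose of an anchor drug with five library-drug doses (not always all listed) in √10 steps. After 5 days, nuclei were stained in a one-step fixation (final 0.05% Triton X-100, 1% formaldehyde, 1 ug/ml Hoechst) and counted on 4× images, and relative viability is the treated-to-vehicle nuclei ratio, as the median of duplicate plates.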

Axitinib + Luminespib = compound: CNC(=O)c1ccccc1Sc1ccc2c(/C=C/c3ccccn3)n[nH]c2c1 [Axitinib] + CCNC(=O)c1noc(-c2cc(C(C)C)c(O)cc2O)c1-c1ccc(CN2CCOCC2)cc1 [Luminespib] (partner 0.01 µM)
Outline: as §1

Bemcentinib + Lapatinib = compound: Nc1nc(Nc2ccc3c(c2)CC[C@@H](N2CCCC2)CC3)nn1-c1cc2c(nn1)-c1ccccc1CCC2 [Bemcentinib] + CS(=O)(=O)CCNCc1ccc(-c2ccc3ncnc(Nc4ccc(OCc5cccc(F)c5)c(Cl)c4)c3c2)o1 [Lapatinib] (partner 2 µM)
Outline: as §1

[1] = compound: CC1=CC=C(C=C1)C(=O)CN2C3=C(CCCC3)SC2=N [Pifithrin_alpha] + N=C(N)NC(=N)NCCc1ccccc1 [Phenformin] (partner 250 µM)
Outline: as §1

Cell Line | relative viability (Axitinib + Crizotinib; first compound 0.005 µM) | relative viability (Axitinib + Crizotinib; first compound 0.01581 µM) | relative viability (Axitinib + Crizotinib; first compound 0.05 µM) | relative viability (Axitinib + Crizotinib; first compound 0.1581 µM) | relative viability (Axitinib + Crizotinib; first compound 0.5 µM) | relative viability (Axitinib + Luminespib; first compound 0.005 µM) | relative viability (Axitinib + Luminespib; first compound 0.01581 µM) | relative viability (Axitinib + Luminespib; first compound 0.05 µM) | relative viability (Axitinib + Luminespib; first compound 0.1581 µM) | relative viability (Axitinib + Luminespib; first compound 0.5 µM) | relative viability (Bemcentinib + Lapatinib; first compound 0.04 µM) | relative viability (Bemcentinib + Lapatinib; first compound 0.1265 µM) | relative viability (Bemcentinib + Lapatinib; first compound 0.4 µM) | relative viability (Bemcentinib + Lapatinib; first compound 1.265 µM) | relative viability (Bemcentinib + Lapatinib; first compound 4 µM) | relative viability ([1]; first compound 1 µM) | relative viability ([1]; first compound 3.162 µM) | relative viability ([1]; first compound 10 µM) | relative viability ([1]; first compound 31.62 µM) | relative viability ([1]; first compound 100 µM)
NCI-H1734 | 0.683 | 0.765 | 0.679 | 0.758 | 0.868 | 0.19 | 0.221 | 0.212 | 0.2 | 0.191 | 1.11 | 1.08 | 1.12 | 1.03 | 1.04 | 0.358 | 0.456 | 0.372 | 0.362 | 0.376
NCI-H1755 | 0.955 | 0.891 | 0.872 | 0.863 | 0.921 | 0.527 | 0.63 | 0.533 | 0.364 | 0.428 | 1.11 | 1.23 | 1.01 | 0.996 | 1.01 | 0.605 | 0.603 | 0.57 | 0.423 | 0.53
NCI-H1792 | 1.02 | 0.988 | 0.987 | 0.962 | 0.955 | 0.555 | 0.34 | 0.325 | 0.417 | 0.418 | 0.899 | 0.855 | 1.11 | 0.969 | 0.896 | 0.292 | – | 0.472 | – | 0.372
NCI-H1915 | 0.905 | 0.899 | 0.908 | 0.883 | 0.957 | 0.787 | 0.795 | 0.902 | 0.84 | 0.861 | 0.958 | 1.07 | 0.979 | 1.09 | 1.05 | 0.385 | 0.424 | – | – | 0.435
NCI-H1944 | 1.05 | 1.24 | 1.03 | 1.15 | 1.18 | 0.755 | 0.726 | 0.717 | 0.738 | 0.769 | 0.794 | 0.909 | 0.817 | 0.883 | 0.887 | 0.165 | 0.209 | 0.191 | 0.166 | 0.22
NCI-H1975 | 1.13 | 1.05 | 1.15 | 0.931 | 1.08 | 0.244 | 0.337 | 0.192 | 0.198 | 0.257 | 0.962 | 1.02 | 0.894 | 0.79 | 0.853 | 0.394 | 0.38 | 0.373 | 0.337 | 0.364
NCI-H1993 | 1.01 | 0.983 | 0.873 | 0.96 | 0.858 | 1.04 | 0.918 | 0.949 | 0.881 | 0.823 | 0.695 | 0.757 | 0.847 | 0.8 | 0.885 | 0.474 | 0.461 | 0.49 | 0.547 | 0.511
NCI-H2009 | 1.17 | 1.14 | 1.01 | 1.08 | 1.16 | 1.11 | 1.12 | 1.02 | 1.07 | 1.16 | 0.93 | 1.09 | 0.956 | 0.954 | 0.957 | 0.483 | 0.467 | 0.451 | 0.345 | 0.422
NCI-H2023 | 0.699 | 0.786 | 0.651 | 0.73 | 0.684 | 0.76 | 0.942 | 0.752 | 0.745 | 0.97 | 0.739 | 0.866 | 0.868 | 0.808 | 0.874 | 0.521 | 0.485 | 0.456 | – | 0.389
NCI-H2085 | 0.799 | 0.902 | 0.794 | 0.718 | 0.874 | 0.451 | 0.389 | 0.404 | 0.502 | 0.415 | 0.625 | 0.805 | 0.756 | 0.74 | 0.721 | – | 0.597 | 0.686 | 0.65 | 0.619
NCI-H2087 | 0.986 | 0.912 | 0.914 | 0.767 | 0.825 | 0.162 | 0.202 | 0.177 | 0.176 | 0.172 | 0.992 | 0.951 | 1.08 | 1.01 | 1.01 | 0.356 | 0.488 | 0.485 | – | 0.451
NCI-H2126 | 1.08 | 0.998 | 0.928 | 0.97 | 1.02 | 0.82 | 0.921 | 0.963 | 0.876 | 0.912 | 0.791 | 0.768 | 0.8 | 0.814 | 0.842 | 0.475 | 0.498 | 0.499 | 0.464 | 0.427
NCI-H2170 | 1.2 | 1.18 | 1.27 | 1.1 | 1.35 | 0.718 | 0.639 | 0.743 | 0.647 | 0.688 | 0.274 | 0.267 | 0.295 | 0.251 | 0.273 | 0.411 | 0.41 | 0.376 | 0.321 | 0.358
NCI-H2228 | 0.443 | 0.473 | 0.384 | 0.612 | 0.438 | 0.142 | 0.118 | 0.147 | 0.174 | 0.138 | – | 1.39 | 1.18 | 1.08 | 1.18 | 0.312 | 0.265 | 0.374 | 0.256 | 0.205
NCI-H2347 | 0.644 | 1.04 | 0.739 | 0.743 | 0.85 | 0.299 | 0.432 | 0.948 | 0.323 | 0.505 | 1.01 | 0.928 | 0.977 | 0.955 | 0.9 | 0.452 | 0.471 | 0.394 | 0.416 | 0.543
NCI-H2405 | 0.822 | 0.972 | 0.831 | 0.754 | 0.852 | 0.863 | 0.809 | 0.839 | 0.779 | 0.866 | 0.86 | 1.16 | 1.05 | 1.1 | 1.03 | 0.371 | 0.504 | 0.481 | 0.463 | 0.479
